Data on 9 molecules can be found in patent US12091402B2 (Avilar Therapeutics, Inc., priority 2021, dated 2024).

For orientation: EC50 means the concentration at which the effect is half-maximal.

Where two headings read alike, the source gives them in different places. A value given as a limit tells only on which side of the number the result lay.

The target of assay [1] is T1, ASGPR receptor on the cell surface (HepG2 cells) (Homo sapiens, UniProt P07306).
T1 construct: host or cells: HepG2
T1 sequence (P07306 1-291): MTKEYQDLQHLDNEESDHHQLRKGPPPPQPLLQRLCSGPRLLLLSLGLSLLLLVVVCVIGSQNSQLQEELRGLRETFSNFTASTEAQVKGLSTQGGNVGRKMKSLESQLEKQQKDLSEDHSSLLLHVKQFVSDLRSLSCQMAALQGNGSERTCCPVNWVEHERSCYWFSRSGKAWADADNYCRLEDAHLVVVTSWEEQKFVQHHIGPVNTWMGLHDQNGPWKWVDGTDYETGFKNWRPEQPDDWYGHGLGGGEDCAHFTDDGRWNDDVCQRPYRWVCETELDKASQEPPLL
T1 sequence (P07307 1-311 partner): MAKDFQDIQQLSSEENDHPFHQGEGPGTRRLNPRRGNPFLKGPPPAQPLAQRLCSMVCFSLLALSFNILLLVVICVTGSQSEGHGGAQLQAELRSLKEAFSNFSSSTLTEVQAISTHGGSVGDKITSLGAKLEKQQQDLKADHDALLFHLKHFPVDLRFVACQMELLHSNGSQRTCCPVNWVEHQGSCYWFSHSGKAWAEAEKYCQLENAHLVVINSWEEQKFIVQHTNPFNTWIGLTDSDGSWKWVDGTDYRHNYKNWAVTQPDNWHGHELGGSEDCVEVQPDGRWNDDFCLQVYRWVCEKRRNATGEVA
The assay can be described thus: Ternary complex formation assay (flow cytometry, HepG2). The assay is classed as cell-based. The text has this: The ternary complex formation assay is designed to identify the concentration of Degrader required to form a complex between the degrader, a constant concentration of fluorescently-labeled antibody and the ASGPR receptor on the cell surface. The peak mean fluorescence intensity (MFI) occurs at the optimal degrader concentration for ternary complex formation. Sub-optimal concentrations of degrader (too much or too little) results in fewer complexes formed and a reduced […].
Human IgG (Sigma-Aldrich, 14506) was covalently labeled with Alexa Fluor 488 using the Alexa Fluor™ 488 Protein Labeling Kit (Thermo Fisher, A10235) following the manufacturer's instructions. HepG2 cells (ATCC, HIB-8065) were cultured to about 70% confluence and harvested by trypsinization. Single cell suspensions of HepG2 cells were plated in 96 well plates at 1×10^5 cells/well in cell culture media (DMEM supplemented with […]) and placed at 4° C. For studies using human IgG, cells were incubated with 100 nM AF488-labeled anti-human IgG and serial dilutions of IgG-based degrader for 1 hour at 4° C. For studies using DNP, cells were incubated with 100 nM AF488-labeled polyclonal rabbit anti-dinitrophenyl (DNP) antibodies (ThermoFisher) and serial dilutions of DNP-based degrader for 1 hour at 4° C. After washing once with ice-cold PBS containing 0.1% BSA and 0.1% sodium azide, cells were resuspended in 150 uL PBS+0.1% BSA and cell-associated AF488 fluorescence was measured by flow cytometry using the iQue® Screener PLUS Flow Cytometer (IntelliCyt).

For a further assay, the system named is HepG2 cells. The assay is described as follows: Cellular uptake assay of AF488-labeled antibody (HepG2). It counts as cell-based. The following applies: HepG2 cells. The procedure:
The cellular uptake assay is designed to measure compound-mediated cellular uptake of fluorescently labeled antibody following ternary complex formation with the ASGPR receptor and endocytosis of the entire complex into cells.
Human IgG (Sigma-Aldrich, 14506) was covalently labeled with Alexa Fluor 488 using the Alexa Fluor™ 488 Protein Labeling Kit (Thermo Fisher, A10235) following the manufacturer's instructions. HepG2 cells were plated in DMEM supplemented with 10% FBS at 5,000 cells per well in a 96-well microtiter plate and incubated for approximately 18 hours at 37° C./5% CO2. For studies using human IgG, 100 nM AF488-labeled human IgG antibodies and serial dilutions of IgG-based degrader (0.1% DMSO final concentration) were added to the cells and the mixture was incubated at 37° C. for 6 hours. For studies using DNP, 100 nM AF488-labeled DNP antibodies and serial dilutions of DNP-based degrader (0.1% DMSO final concentration) were added to the cells and the mixture was incubated at 37° C. for 6 hours. HepG2 cells were fixed in 100% methanol at −20° C. for 20 min, washed 3× with PBS, then stained with DAPI (Thermo, Cat #H3570). HepG2 cells were imaged for DAPI and Alexa Fluor 488 using the Operetta CLS, high-content analysis system (PerkinElmer). Data is presented as the ratio of the number of cells positive for hIgG or DNP (AF-488 fluorescence) over the total cell number (measured by DAPI).

[2] abbreviates: 100 nM AF488-labeled antibody, 37° C. for 6 hours, class symbols, read-out: Uptake Assay EC50.

Consider `CC(C)C[C@@H]1NC(=O)[C@H](Cc2c[nH]cn2)NC(=O)[C@H](Cc2c[nH]c3ccccc23)NC(=O)[C@H](C)NC(=O)[C@@H](NC(=O)[C@@H](N)CC(=O)O)CSSC[C@@H](C(=O)N[C@H](C(N)=O)[C@@H](C)O)NC(=O)[C@H](Cc2c[nH]c3ccccc23)NC(=O)[C@H](C(C)C)NC(=O)[C@H](CC(C)C)NC(=O)[C@H](CCC(=O)NCCOCCOCCOCCOCCNC(=O)CCCc2cn(CCCCCC(=O)NC(COCCC(=O)NCCOCCOCCOCCOC[C@@]34CO[C@@H](O3)[C@H](Nc3nc(Cl)ns3)[C@@H](O)[C@H]4O)COCCC(=O)NCCOCCOCCOCCOC[C@@]34CO[C@@H](O3)[C@H](Nc3nc(Cl)ns3)[C@@H](O)[C@H]4O)nn2)NC(=O)CNC1=O` [Compound 3], for which the EC50 in assay [1] is less than 100 nM; in assay [1] (read-out: Ternary Complex EC50) it was less than 100 nM; in the assay on HepG2 cells (setting [2]), 500 to 1000 nM; in the assay with HepG2 cells (read-out: Uptake EC50), less than 100 nM.

Turning to `CC(C)C[C@@H]1NC(=O)[C@H](Cc2c[nH]cn2)NC(=O)[C@H](Cc2c[nH]c3ccccc23)NC(=O)[C@H](C)NC(=O)[C@@H]2CSSC[C@H](NC(=O)[C@H](Cc3c[nH]c4ccccc34)NC(=O)[C@H](C(C)C)NC(=O)[C@H](CC(C)C)NC(=O)[C@H](CCC(=O)O)NC(=O)CNC1=O)C(=O)N[C@@H]([C@@H](C)O)C(=O)N1CCC[C@@H]1C(=O)N1C[C@@H](NC(=O)CNC(COCCC(=O)NCCOCCOCCOCCOC[C@@]34CO[C@@H](O3)[C@H](Nc3cncc(C(F)(F)F)n3)[C@@H](O)[C@H]4O)COCCC(=O)NCCOCCOCCOCCOC[C@@]34CO[C@@H](O3)[C@H](Nc3cncc(C(F)(F)F)n3)[C@@H](O)[C@H]4O)C[C@H]1C(=O)N[C@@H](CC(=O)O)C(=O)N2` [Compound 73], the EC50 in assay [1] is less than 100 nM; in the assay on HepG2 cells (read-out: Uptake EC50) it was 500 to 1000 nM.

Turning to `CC(C)C[C@@H]1NC(=O)[C@H](Cc2c[nH]cn2)NC(=O)[C@H](Cc2c[nH]c3ccccc23)NC(=O)[C@H](C)NC(=O)[C@@H]2CSSC[C@H](NC(=O)[C@H](Cc3c[nH]c4ccccc34)NC(=O)[C@H](C(C)C)NC(=O)[C@H](CC(C)C)NC(=O)[C@H](CCC(=O)O)NC(=O)CNC1=O)C(=O)N[C@@H]([C@@H](C)O)C(=O)N1CCC[C@@H]1C(=O)N1C[C@@H](NC(=O)COCC(=O)NC(COCCC(=O)NCCOCCOCCOCCOC[C@H]3OC[C@H](Nc4nccc(C(F)(F)F)n4)[C@@H](O)[C@H]3O)COCCC(=O)NCCOCCOCCOCCOC[C@H]3OC[C@H](Nc4nccc(C(F)(F)F)n4)[C@@H](O)[C@H]3O)C[C@H]1C(=O)N[C@@H](CC(=O)O)C(=O)N2` [Compound 46], the half-maximal effective concentration (EC50) (in assay [1]; in the assay with HepG2 cells (setting [2])) was less than 100 nM each time.

Take `CC(C)C[C@@H]1NC(=O)[C@H](Cc2c[nH]cn2)NC(=O)[C@H](Cc2c[nH]c3ccccc23)NC(=O)[C@H](C)NC(=O)[C@@H](NC(=O)[C@H](CC(=O)O)NC(=O)CCOCCOCCOCCOCCNC(=O)CCCc2cn(CCCCCC(=O)NC(COCCC(=O)NCCOCCOCCOCCO[C@@H]3O[C@H](CO)[C@H](O)[C@H](O)[C@H]3Nc3cncc(C(F)(F)F)n3)COCCC(=O)NCCOCCOCCOCCO[C@@H]3O[C@H](CO)[C@H](O)[C@H](O)[C@H]3Nc3cncc(C(F)(F)F)n3)nn2)CSSC[C@@H](C(=O)N[C@H](C(N)=O)[C@@H](C)O)NC(=O)[C@H](Cc2c[nH]c3ccccc23)NC(=O)[C@H](C(C)C)NC(=O)[C@H](CC(C)C)NC(=O)[C@H](CCC(=O)O)NC(=O)CNC1=O` [Compound 89]: the EC50 in assay [1] (HepG2 cells, ternary complex formation, read-out: TCF EC50) was less than 100 nM; in the assay on HepG2 cells (read-out: Uptake EC50) it was less than 100 nM.

With `CC(C)C[C@@H]1NC(=O)[C@H](Cc2c[nH]cn2)NC(=O)[C@H](Cc2c[nH]c3ccccc23)NC(=O)[C@H](C)NC(=O)[C@@H]2CSSC[C@H](NC(=O)[C@H](Cc3c[nH]c4ccccc34)NC(=O)[C@H](C(C)C)NC(=O)[C@H](CC(C)C)NC(=O)[C@H](CCC(=O)O)NC(=O)CNC1=O)C(=O)N[C@@H]([C@@H](C)O)C(=O)N1CCC[C@@H]1C(=O)N1C[C@@H](NC(=O)CCOCCOCCOCCOCCNC(=O)CCCc3cn(CCCCCC(=O)NC(COCCC(=O)NCCOCCOCCOCCO[C@@H]4O[C@H](CO)[C@H](O)[C@H](O)[C@H]4Nc4cncc(C(F)(F)F)n4)COCCC(=O)NCCOCCOCCOCCO[C@@H]4O[C@H](CO)[C@H](O)[C@H](O)[C@H]4Nc4cncc(C(F)(F)F)n4)nn3)C[C@H]1C(=O)N[C@@H](CC(=O)O)C(=O)N2` [Compound 82], the EC50 (in assay [1]; in the assay on HepG2 cells (read-out: Uptake EC50)) was less than 100 nM in each case.

As to `CC(C)C[C@@H]1NC(=O)[C@H](Cc2c[nH]cn2)NC(=O)[C@H](Cc2c[nH]c3ccccc23)NC(=O)[C@H](C)NC(=O)[C@@H]2CSSC[C@H](NC(=O)[C@H](Cc3c[nH]c4ccccc34)NC(=O)[C@H](C(C)C)NC(=O)[C@H](CC(C)C)NC(=O)[C@H](CCC(=O)O)NC(=O)CNC1=O)C(=O)N[C@@H]([C@@H](C)O)C(=O)N1CCC[C@@H]1C(=O)N1C[C@@H](NC(=O)CCOCCOCCOCCNC(=O)CCCc3cn(C[C@@]45CO[C@@H](O4)[C@H](Nc4nc(Cl)ns4)[C@@H](O)[C@H]5O)nn3)C[C@H]1C(=O)N[C@@H](CC(=O)O)C(=O)N2` [Compound 5], the half-maximal effective concentration (EC50) (in assay [1]; in the assay with HepG2 cells (setting [2])) was less than 100 nM in each case.

For the molecule `CC(C)C[C@@H]1NC(=O)[C@H](Cc2c[nH]cn2)NC(=O)[C@H](Cc2c[nH]c3ccccc23)NC(=O)[C@H](C)NC(=O)[C@@H]2CSSC[C@H](NC(=O)[C@H](Cc3c[nH]c4ccccc34)NC(=O)[C@H](C(C)C)NC(=O)[C@H](CC(C)C)NC(=O)[C@H](CCC(=O)O)NC(=O)CNC1=O)C(=O)N[C@@H]([C@@H](C)O)C(=O)N1CCC[C@@H]1C(=O)N1C[C@@H](NC(=O)CNC(COCCC(=O)NCCOCCOCCOCCOC[C@H]3OC[C@H](Nc4nccc(C(F)(F)F)n4)[C@@H](O)[C@H]3O)COCCC(=O)NCCOCCOCCOCCOC[C@H]3OC[C@H](Nc4nccc(C(F)(F)F)n4)[C@@H](O)[C@H]3O)C[C@H]1C(=O)N[C@@H](CC(=O)O)C(=O)N2` [Compound 50], the concentration for a half-maximal effect (EC50) (in assay [1]; in the assay with HepG2 cells (setting [2])) was less than 100 nM in each case.

As to `CC(C)C[C@@H]1NC(=O)[C@H](Cc2c[nH]cn2)NC(=O)[C@H](Cc2c[nH]c3ccccc23)NC(=O)[C@H](C)NC(=O)[C@@H]2CSSC[C@H](NC(=O)[C@H](Cc3c[nH]c4ccccc34)NC(=O)[C@H](C(C)C)NC(=O)[C@H](CC(C)C)NC(=O)[C@H](CCC(=O)O)NC(=O)CNC1=O)C(=O)N[C@@H]([C@@H](C)O)C(=O)N1CCC[C@@H]1C(=O)N1C[C@H](NC(=O)c3ccc(N4CCC(CN5CCN(C[C@H]6OC[C@H](Nc7cncc(C(F)(F)F)n7)[C@@H](O)[C@H]6O)CC5)CC4)cc3)C[C@H]1C(=O)N[C@@H](CC(=O)O)C(=O)N2` [Compound 93], the concentration for a half-maximal effect (EC50) (in assay [1]; in the assay with HepG2 cells (read-out: Uptake EC50)) was less than 100 nM in each case.

In the case of `CC(C)C[C@@H]1NC(=O)[C@H](Cc2c[nH]cn2)NC(=O)[C@H](Cc2c[nH]c3ccccc23)NC(=O)[C@H](C)NC(=O)[C@@H]2CSSC[C@H](NC(=O)[C@H](Cc3c[nH]c4ccccc34)NC(=O)[C@H](C(C)C)NC(=O)[C@H](CC(C)C)NC(=O)[C@H](CCC(=O)O)NC(=O)CNC1=O)C(=O)N[C@@H]([C@@H](C)O)C(=O)N1CCC[C@@H]1C(=O)N1C[C@@H](NC(=O)COCCOCCOCC(=O)NC(COCCC(=O)NCCOCCOCCOCCOC[C@H]3OC[C@H](Nc4cncc(C(F)(F)F)n4)[C@@H](O)[C@H]3O)COCCC(=O)NCCOCCOCCOCCOC[C@H]3OC[C@H](Nc4cncc(C(F)(F)F)n4)[C@@H](O)[C@H]3O)C[C@H]1C(=O)N[C@@H](CC(=O)O)C(=O)N2` [Compound 40], the EC50 (in assay [1]; with HepG2 cells (setting [2])) was less than 100 nM each time.
